Holding throughout (type): functional, organism-based
Test [1] deals with Escherichia coli. As to the kind of experiment: Bactericidal activity against Escherichia coli up to 18 hrs by time-kill assay.
Test [2] deals with Pseudomonas aeruginosa. Briefly: Bactericidal activity against Pseudomonas aeruginosa PCM 2562 (ATCC9027) after 18 hrs by broth micro-dilution method. A general note: Dilution methods test growth across graded concentrations, often in twofold steps.
In test [3] the test system is Pseudomonas aeruginosa. As to the kind of experiment: Bactericidal activity against Pseudomonas aeruginosa PCM 2562 (ATCC9027) after 4 hrs by broth micro-dilution method.
Test [4] deals with Staphylococcus aureus. Briefly: Bactericidal activity against Staphylococcus aureus up to 4 times MIC up to 18 hrs by time-kill assay.
For test [5], the system named is Staphylococcus aureus. Briefly: Bactericidal activity against Staphylococcus aureus at 1 to 4 times MIC up to 18 hrs by time-kill assay.
Test [6] has as its system Staphylococcus aureus. As to the kind of experiment: Bactericidal activity against Staphylococcus aureus at 0.5 to 1 time MIC up to 18 hrs by time-kill assay.
Test [7] concerns Staphylococcus aureus. As to the kind of experiment: Bactericidal activity against Staphylococcus aureus at 4 times MIC up to 18 hrs by time-kill assay.
Test [8] relates to Pseudomonas aeruginosa. Briefly: Bacteriostatic activity against Pseudomonas aeruginosa PCM 2562 (ATCC9027) after 16 to 20 hrs by broth micro-dilution method.
Test [9] has as its system Staphylococcus aureus. Briefly: Antimicrobial activity against Staphylococcus aureus after 16 to 20 hrs by broth micro-dilution method.
For test [10], the system named is Escherichia coli. As to the kind of experiment: Antimicrobial activity against Escherichia coli after 16 to 20 hrs by broth micro-dilution method.
Test [11] deals with Staphylococcus aureus. As to the kind of experiment: Bacteriostatic activity against Staphylococcus aureus after 16 to 20 hrs by broth micro-dilution method.
In test [12] the test system is Staphylococcus aureus. Briefly: Bactericidal activity against Staphylococcus aureus at 0.5 to 1 times MIC up to 18 hrs by time-kill assay.
Test [13] relates to Candida albicans. As to the kind of experiment: Antifungal activity against Candida albicans after 16 to 20 hrs by broth micro-dilution method.
The test system of test [14] is Candida albicans. Briefly: Fungicidal activity against Candida albicans by time-kill assay.
Test [15] relates to Candida albicans. Briefly: Fungicidal activity against Candida albicans at 250 ug/ml by time-kill assay.
Test [16] concerns Candida albicans. Briefly: Fungicidal activity against Candida albicans at 4 to 8 times MIC after 4 hrs by time-kill assay.
For test [17], the system named is Candida albicans. As to the kind of experiment: Fungicidal activity against Candida albicans at 8 times MIC after 4 hrs by time-kill assay.
In test [18] the test system is Staphylococcus aureus. As to the kind of experiment: Bactericidal activity against Staphylococcus aureus at 8 times MIC after 18 hrs by time-kill assay.
Test [19] has as its system Pseudomonas aeruginosa. As to the kind of experiment: Bactericidal activity against Pseudomonas aeruginosa PCM 2562 (ATCC9027) after 16 to 20 hrs by broth micro-dilution method.
Test [20] relates to Staphylococcus aureus. As to the kind of experiment: Bactericidal activity against Staphylococcus aureus after 16 to 20 hrs by broth micro-dilution method.
Test [21] concerns Candida albicans. As to the kind of experiment: Fungicidal activity against Candida albicans at 2 times MIC by time-kill assay.
In test [22] the test system is Candida albicans. Briefly: Fungicidal activity against Candida albicans at 2 to 4 times MIC by time-kill assay.

Active and inactive are the calls of the source. The rule behind the calls is not given here. Non-standard residues stand in square brackets, D forms with d. Residues, ends and D or L forms follow the SMILES beside them. ξ: configuration not given here. *: point of attachment. Stearoyl = CCCCCCCCCCCCCCCCCC(=O)*; Palmitoyl = CCCCCCCCCCCCCCCC(=O)*; Lauroyl = CCCCCCCCCCCC(=O)*; ξHyp = O=C(O)C1CC(O)CN1

Take `CCCCCCCCCCCCCCCC(=O)NCC(=O)N1CC(O)CC1C(=O)N[C@@H](CCCCN)C(=O)O` (some centres undefined) (Palmitoyl-Gly-[ξHyp]-Lys-OH): the result in the test with Escherichia coli [1], in the test on Pseudomonas aeruginosa [2], in the test on Pseudomonas aeruginosa [3], in the test with Staphylococcus aureus [4], with Staphylococcus aureus [5] and in the test with Staphylococcus aureus [6] was Active. In addition, the outcome in the test with Staphylococcus aureus [7] was Active.

Consider `NCCCC[C@H](NC(=O)[C@H](Cc1cnc[nH]1)NC(=O)CN)C(=O)O` (H-Gly-His-Lys-OH), for which the result with Pseudomonas aeruginosa [8], with Staphylococcus aureus [9], in the test on Escherichia coli [10] and with Staphylococcus aureus [11] was Active.

Consider `CCCCCCCCCCCC(=O)NCC(=O)NCC(=O)N1CC(O)CC1C(=O)N[C@@H](CCCCN)C(=O)O` (some centres undefined) (Lauroyl-GG[ξHyp]K-OH), for which the outcome in the test with Escherichia coli [1] and in the test with Staphylococcus aureus [12] was Active.

As usually defined, the MFC is the lowest tested concentration that kills the fungus rather than only halting it. For orientation: MIC50 means the lowest concentration that inhibits either 50% of growth or 50% of the strains tested, depending on the study. Usually MIC90 stands for an inhibitory concentration at the 90% level, which refers to growth in some studies and to a panel of isolates in others. A high value points to weaker potency. Consider NYSTATIN, for which, in the test on Candida albicans [13], the MFC amounted to 7.8 µg/mL, the MFC50 is 1.9 µg/mL, the MFC90 is 7.8 µg/mL and the MIC50 amounted to 1.9 µg/mL. The molecule further showed an MIC90 against Candida albicans [13] of 3.9 µg/mL. Besides, in the test on Candida albicans [14], the result was Active.

As to `CCCCCCCCCCCCCCCCCC(=O)NCC(=O)N1CC(O)CC1C(=O)N[C@@H](CCCCN)C(=O)O` (some centres undefined), the outcome with Escherichia coli [1], with Candida albicans [15], in the test with Candida albicans [16], in the test on Candida albicans [17] and with Staphylococcus aureus [4] was Active.

Turning to `CC(=O)NCC(=O)NCC(=O)N1CC(O)CC1C(=O)N[C@@H](CCCCN)C(=O)O` (some centres undefined) (Ac-GG[ξHyp]K-OH), the outcome in the test with Escherichia coli [1] was Active.

Consider `CCCCCCCCCCCC(=O)NCC(=O)N1CC(O)CC1C(=O)N[C@@H](CCCCN)C(=O)O` (some centres undefined), for which the outcome with Escherichia coli [1], with Pseudomonas aeruginosa [2], with Pseudomonas aeruginosa [3], in the test with Staphylococcus aureus [18], in the test with Pseudomonas aeruginosa [8] and with Escherichia coli [10] was Active. Further, the outcome with Pseudomonas aeruginosa [19], with Staphylococcus aureus [11] and in the test on Staphylococcus aureus [20] was Active.

Regarding `CCCCCCCCCCCCCCCCCC(=O)NCC(=O)NCC(=O)N1CC(O)CC1C(=O)N[C@@H](CCCCN)C(=O)O` (some centres undefined) (Stearoyl-GG[ξHyp]K-OH), the result in the test with Candida albicans [21] and with Candida albicans [22] was Active.

With `CSCC[C@H](NC(=O)C1CC(O)CN1C(=O)CN)C(=O)N[C@@H](CCCCN)C(=O)O` (some centres undefined) (H-G[ξHyp]MK-OH), the result in the test on Escherichia coli [1] and in the test with Staphylococcus aureus [9] was Active. Further, the result in the test with Escherichia coli [10] was inactive.

The record behind these values is ChEMBL document CHEMBL3396966, “In vitro studies of antimicrobial activity of Gly-His-Lys conjugates as potential and promising candidates for therapeutics in skin and tissue infections” (2015).
